Assay results published in the Kinase Knowledgebase extract (Sharma et al. 2016).

Target: CDK2 (human) (UniProt P24941)
Assay: Enzyme Assay

Compound | IC50
Cc1n[nH]cc1-c1ccnc(NC2CCCCC2)n1 | < 5 µM
Cc1n[nH]cc1-c1ccnc(NCCOc2ccccc2)n1 | < 15 µM
Cc1n[nH]cc1-c1ccnc(NCc2ccc3c(c2)OCO3)n1 | < 10 µM
CC(CCc1ccccc1)Nc1nccc(-c2c[nH]nc2C(C)C)n1 (stereo not given) | < 5 µM
FC(F)(F)c1ccccc1CNc1cc(-c2cn[nH]c2C2CCCC2)ccn1 | < 5 µM
Cc1n[nH]cc1-c1ccnc(NCc2ccncc2)n1 | < 15 µM
Cc1n[nH]cc1-c1ccnc(NC2CC2)n1 | < 10 µM
CC(C)c1[nH]ncc1-c1ccnc(NCc2cccc(C(F)(F)F)c2)c1 | < 5 µM
CC(C)c1n[nH]cc1-c1ccnc(NC2CCN(C(=O)OC(C)(C)C)CC2)n1 | < 1 µM
CC(C)c1n[nH]cc1-c1ccnc(NC2CCN(c3ccccc3)CC2)n1 | < 0.5 µM
CC(C)c1n[nH]cc1-c1ccnc(NC2CCNCC2)n1 | < 1 µM
CCC(CC)c1[nH]ncc1-c1ccnc(NC2CCc3ccccc32)c1 (stereo not given) | < 5 µM
CCC(C)c1[nH]ncc1-c1ccnc(NCc2ccccc2C)c1 (stereo not given) | < 5 µM
COCCNc1cc(-c2cn[nH]c2C(C)C)ccn1 | < 10 µM
CC(C)c1[nH]ncc1-c1ccnc(NC2CCCCC2)c1 | < 0.5 µM
Cc1n[nH]cc1-c1ccnc(NCc2ccccc2)n1 | < 15 µM
CCC(C)c1[nH]ncc1-c1ccnc(NC2CCc3ccccc32)c1 (stereo not given) | < 5 µM
c1ccc2c(c1)CCC2Nc1cc(-c2cn[nH]c2C2CC2)ccn1 (stereo not given) | < 5 µM
Cc1ccccc1CNc1cc(-c2cn[nH]c2C2CC2)ccn1 | < 5 µM
CC(C)c1[nH]ncc1-c1ccnc(NCC2CCCCCC2)c1 | < 5 µM
CCC(CC)c1[nH]ncc1-c1ccnc(NC2CCN(C(=O)OC(C)(C)C)CC2)c1 | < 5 µM
Cc1n[nH]cc1-c1ccnc(NCc2cccc(C(F)(F)F)c2)n1 | < 10 µM
CC(C)c1[nH]ncc1-c1ccnc(NCC2CCCO2)c1 (stereo not given) | < 10 µM

Compound | IC50
CCC(C)Nc1nccc(-c2c[nH]nc2C)n1 (stereo not given) | < 5 µM
Cc1n[nH]cc1-c1ccnc(NCCCn2ccnc2)n1 | < 10 µM
CC(C)c1n[nH]cc1-c1ccnc(NC(C)c2ccccc2)n1 (stereo not given) | < 5 µM
CC(C)c1n[nH]cc1-c1nc(NC2CCN(C)CC2)ncc1Br | < 5 µM
CC(C)c1n[nH]cc1-c1ccnc(NC2CN3CCC2CC3)n1 (stereo not given) | < 5 µM
CC(C)c1[nH]ncc1-c1ccnc(NCC2CC2)c1 | < 5 µM
CC(C)c1[nH]ncc1-c1ccnc(NCc2ccccc2)c1 | < 5 µM
CC(C)c1n[nH]cc1-c1ccnc(NC2CCN(C)CC2)n1 | < 1 µM
Cc1n[nH]cc1-c1ccnc(NCC2CCCCC2)n1 | < 10 µM
Cc1n[nH]cc1-c1ccnc(NC2CCN(C)CC2)n1 | < 15 µM
CC(C)c1n[nH]cc1-c1ccnc(NCCCNC2CCCCC2)n1 | < 10 µM
CC(C)c1[nH]ncc1-c1ccnc(NCc2ccncc2)c1 | < 5 µM
CC(C)c1n[nH]cc1-c1ccnc(NC2CCc3ccccc32)n1 (stereo not given) | < 1 µM
CC(C)c1[nH]ncc1-c1ccnc(NC(C)c2ccccc2)c1 (stereo not given) | < 5 µM
Cc1n[nH]cc1-c1ccnc(NCCc2c[nH]c3ccccc23)n1 | < 10 µM
CC(C)c1n[nH]cc1-c1ccnc(NC2CCc3cc(Cl)ccc32)n1 (stereo not given) | < 0.5 µM
Cc1n[nH]cc1-c1ccnc(NCc2cc(F)cc(F)c2)n1 | < 5 µM
CC(C)c1n[nH]cc1-c1ccnc(N[C@H](C)c2ccccn2)n1 | < 5 µM
CC(C)c1n[nH]cc1-c1ccnc(NC2CCCCC2C)n1 (stereo not given) | < 1 µM
CC(C)c1n[nH]cc1-c1ccnc(NC2CCCc3ccccc32)n1 (stereo not given) | < 1 µM
CC(C)c1n[nH]cc1-c1ccnc(NC(C)c2ccccn2)n1 (stereo not given) | < 10 µM
Cc1n[nH]cc1-c1ccnc(NC2Cc3ccccc3C2)n1 | < 5 µM
CC(C)c1[nH]ncc1-c1ccnc(NCC2CCCCC2)c1 | < 5 µM

Compound | IC50
CN1CCC(Nc2cc(-c3cn[nH]c3C(C)(C)C)ccn2)CC1 | < 15 µM
CC(C)c1n[nH]cc1-c1ccnc(NCc2ccccc2Cl)n1 | < 1 µM
CC(C)c1n[nH]cc1-c1ccnc(NC2CC(C)(C)c3ccccc32)n1 (stereo not given) | < 5 µM
CC(C)c1n[nH]cc1-c1ccnc(NCc2ccccc2C(F)(F)F)n1 | < 5 µM
CC(C)c1[nH]ncc1-c1ccnc(NCCc2ccccn2)c1 | < 5 µM
Cc1n[nH]cc1-c1ccnc(NCc2cccnc2)n1 | < 10 µM
c1cc(-c2cn[nH]c2C2CCCC2)cc(NC2CCCC2)n1 | < 0.5 µM
CC(C)c1nn(C)cc1-c1ccnc(NC2CCN(C)CC2)n1 | < 5 µM
CC(C)CNc1cc(-c2cn[nH]c2C2CCCC2)ccn1 | < 1 µM
CC(C)c1[nH]ncc1-c1ccnc(NCCc2cccnc2)c1 | < 5 µM
CC(C)c1n[nH]cc1-c1ccnc(NCc2c(F)cccc2F)n1 | < 5 µM
CCCCNc1cc(-c2cn[nH]c2C(C)C)ccn1 | < 5 µM
CC(C)c1n[nH]cc1-c1ccnc(NCc2ccccc2F)n1 | < 0.5 µM
CC(C)c1[nH]ncc1-c1ccnc(NC(CO)C(C)C)c1 (stereo not given) | < 15 µM
Cc1ccccc1CNc1nccc(-c2c[nH]nc2C(C)C)n1 | < 1 µM
COc1ccccc1CNc1nccc(-c2c[nH]nc2C)n1 | < 15 µM
Cc1ccc(CNc2cc(-c3cn[nH]c3C3CCCC3)ccn2)cc1 | < 5 µM
CC(C)CNc1cc(-c2cn[nH]c2C(C)C)ccn1 | < 0.5 µM
CC(C)c1n[nH]cc1-c1ccnc(NC2CCCCC2)n1 | < 0.05 µM
Cc1n[nH]cc1-c1ccnc(NCCc2ccccc2)n1 | < 10 µM
COc1ccc(CNc2nccc(-c3c[nH]nc3C)n2)cc1 | < 15 µM
CC(C)c1[nH]ncc1-c1ccnc(NCCN2CCOCC2)c1 | < 10 µM
Cc1n[nH]cc1-c1ccnc(NC2CCC2)n1 | < 5 µM

Compound | IC50
CC(C)c1[nH]ncc1-c1ccnc(NCCCO)c1 | < 5 µM
CC(C)c1[nH]ncc1-c1ccnc(NCc2ccco2)c1 | < 5 µM
CCC(Nc1nccc(-c2c[nH]nc2C(C)C)n1)c1ccccc1 (stereo not given) | < 5 µM
Cc1n[nH]cc1-c1ccnc(NCC2CCCCCC2)n1 | < 15 µM
COCCCNc1cc(-c2cn[nH]c2C(C)C)ccn1 | < 5 µM
Cc1n[nH]cc1-c1ccnc(NC2CCCCCC2)n1 | < 5 µM
Cc1cccc(CNc2cc(-c3cn[nH]c3C(C)C)ccn2)c1 | < 5 µM
CC(C)COCCCNc1nccc(-c2c[nH]nc2C(C)C)n1 | < 5 µM
Cc1ccccc1CNc1cc(-c2cn[nH]c2C2CCCCCC2)ccn1 | < 10 µM
CC(C)c1n[nH]cc1-c1ccnc(NCCCN(C)C)n1 | < 10 µM
CC(C)c1[nH]ncc1-c1ccnc(NCc2ccccc2C(F)(F)F)c1 | < 5 µM
CC(C)c1[nH]ncc1-c1ccnc(NC2CCc3ccccc32)c1 (stereo not given) | < 5 µM
CC(C)c1[nH]ncc1-c1ccnc(NCc2ccc3c(c2)OCO3)c1 | < 5 µM
c1cc(-c2cn[nH]c2C2CCCC2)cc(NC2CCC2)n1 | < 0.5 µM
CC(C)c1n[nH]cc1-c1ccnc(NC2CCN(Cc3ccccc3)CC2)n1 | < 1 µM
CC(C)c1[nH]ncc1-c1ccnc(NC2CCN(C)CC2)c1 | < 15 µM
CC(C)c1n[nH]cc1-c1ccnc(NC2Cc3ccccc3C2)n1 | < 0.5 µM
Cc1n[nH]cc1-c1ccnc(NCCc2cccnc2)n1 | < 10 µM
CC(C)c1n[nH]cc1-c1ccnc(N[C@H]2CCc3ccccc32)n1 | < 0.5 µM
c1ccc(CCNc2cc(-c3cn[nH]c3C3CCCC3)ccn2)cc1 | < 5 µM
c1ccc2c(c1)CC(Nc1cc(-c3cn[nH]c3C3CCCCCC3)ccn1)C2 | < 1 µM
